# Reference: US10975123B2, “Mutant Akt-specific capture agents, compositions, and methods of using and making” (California Institute of Technology, priority 2014, dated 2021)
# Where a SMILES comes first, the peptide text is derived from it. Bridges are numbered along the chain shown (N, C = ends). Roman numbers before positions name the chains, in order. Primed or numbered codes have the meaning given here. Triazole bridges read from a SMILES are 1,4-linked. Where no end group is shown, it is not given here. [ ]: non-standard residue; d: D form. The star is where a group is joined. Biotin = O=C1N[C@H]2[C@H](CS[C@H]2CCCCC(=O)*)N1; Lys(N3) = [N-]=[N+]=NCCCC[C@H](N)C(=O)O; PEG6 = NCCOCCOCCOCCOCCOCCOCCC(=O)O; dPra = C#CC[C@@H](N)C(=O)O; PEG5′ = PEG5 linker
# Columns and labels:
# [1] = system: E17K Akt1 relative to E17K Akt2; assay: Point ELISA for triligand binding to Akt1 and Akt2 wildtype and E17K mutant; details: protein 100 nM, immobilized triligand, in words
# Protocol: These assays were conducted to test the binding of the triligand to the off-target Akt2 wildtype and mutant proteins. For this assay, all samples were taken in triplicate for statistical purposes. Triligand peptide was first immobilized onto neutravdin ELISA plates (Pierce) for one hour. A scrambled anchor peptide, eflya, was used as the no-ligand blank, as the GST proteins has significant background binding to a blank neutravidin plate. The plates were then blocked with 5% BSA overnight. Protein was laid down at a concentration of 100 nM for samples wells and the blank, scrambled peptide wells. GST protein alone (Abcam) was also incubated with the triligand and scrambled peptide as a control. The proteins were incubated for one hour, then washed three times with 1×TBST. The protein was then detected with 1:10,000 anti-GST mouse mAb (Fisher, #MA4-004) for one hour, washed three times with 1×TBST and developed with a 1:1 mixture of TMB substrate for ten minutes. The samples were plotted by subtracting the blanks and averaging the sample wells. The highest signal was considered 100% binding, and the other samples were normalized accordingly.
# [2] = molecular target: T1, E17K PH Domain binding to PIP3 (Homo sapiens, UniProt P31749, E17K); assay: PIP3 agarose inhibition assay, E17K; format: biochemical; details: in words; for inhibition of E17K PH Domain binding to PIP3-coated resin: ligand 2.38 μM (10x protein), protein 234 nM, western blot; for inhibition of E17K PH Domain binding to PIP3 resin, expanded assay: triligand 0.1-1000 eq relative to protein (234 nM)
# T1 construct: 2 μg of either wildtype or mutant PH Domain-GFP protein (234 nM); made in house; host or cells: HEK-293-6E (used as cell lysate, not purified)
# T1 sequence (P31749 5-108 E17K limits assumed): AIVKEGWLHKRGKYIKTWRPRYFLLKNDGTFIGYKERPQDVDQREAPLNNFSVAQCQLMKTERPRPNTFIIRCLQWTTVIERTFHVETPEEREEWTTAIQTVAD
# From the text: (§1) The yleaf ligand, the biligand, and the triligand were all tested for their ability to block the E17K PHD binding with PIP3. For this test, PIP3-coated resin (Echelon Biosciences) was used to mimic the PHD interaction with the cell membrane, and could be used to bind the protein as in an immunoprecipitation assay^22. The presence of an effective blocking compound would reduce the ability of the resin to capture the protein, and would thus appear as a diminished signal in the corresponding western blot assay. A control lane containing no capture agent was used to show baseline binding of the protein to the PIP3 resin. […] In an expanded study, we compared the amount of E17K and WT PH domain binding relative to the amount of added triligand (FIG. 5e).
# PIP3 Agarose beads (Echelon) were used to detect for the inhibition of PH Domain binding to its substrate, PIP3, upon incubation with the anchor candidate peptide ligands. To test the inhibition of each of the ligands, anchor biligand and triligand, 20 μL of resin slurry was added to each of four tubes and washed three times with 1×TBS. Protein, 2 μg (234 nM) of E17K mutant, was preincubated for one hour at room temperature with either DMSO (no protein blank), anchor, biligand or triligand at 2.38 μM (10× in relation to protein) in 200 μL of 1×TBS. For the control, mutant PH Domain was incubated with 1×TBS and 1 μL […] to mimic the ligand conditions. These protein samples were then added to PIP3 agarose in a Spin-X tube and incubated at room temperature for two hours. The resin was washed three times with 1×TBS with 0.25% IGEPAL CA-630, spun out to dry completely, then denatured with 50 μL 3×SDS gel loading buffer for 10 min at 95° C. The gel loading buffer was spun out of the resin and detected via western blot as per the Streptavidin-Agarose Pulldowns. Inhibition was indicated by a decrease in the amount of PH Domain that was pulled down by the resin.
# (§2) Expanded inhibition blots with either WT of E17K mutant protein were performed in a similar fashion. Twelve tubes of 20 μL of PIP3 agarose were washed three times with 1×TBS. 2 μg of either wildtype or mutant PH Domain-GFP protein (234 nM) in 200 uL 1×TBS were preincubated for 30 minutes with differing concentrations of triligand: 0.1 eq (23.4 nM), 1 eq (234 nM), 10 eq (2.34 μM), 100 eq (23.4 μM), and 1000 eq (234 μM). The protein and triligand solutions were then incubated with the PIP3 resin for 2 hours at room temperature. The resins were washed, eluted, and blotted as per all PH Domain western blots.
# [3] = molecular target: T2, E17K GST-PH Domain (E17K Akt1) (Homo sapiens, UniProt P31749, E17K); assay: Full curve ELISA, immobilized ligand, E17K protein; format: binding
# T2 construct: The first 124 N-terminal amino acids from full length Akt1 were used as the PH Domain DNA; GST (N); thrombin cleavage site (C); 6His (C); made in house; host or cells: E. coli BL21-DE3-pLys
# T2 sequence (P31749 1-124 E17K): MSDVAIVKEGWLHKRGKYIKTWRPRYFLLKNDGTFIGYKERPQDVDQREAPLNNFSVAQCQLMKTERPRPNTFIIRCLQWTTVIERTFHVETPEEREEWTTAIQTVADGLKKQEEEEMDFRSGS
# Protocol: The full curve ELISAs were obtained using streptavidin coated ELISA plates (Pierce). The ligands—anchor, biligand, triligand and “eflya” scrambled anchor peptide blank—were laid down at a concentration of 1 μM for one hour. Two lanes of each ligand were used on the plate for both proteins—WT and E17K GST-PH Domain. The plates were blocked with 5% BSA for two hours. Dilutions of both WT and E17K GST-PH Domain proteins were made in 0.5% BSA in 1×TBS starting from 1 μM-0.5 nM by serially diluting 1:2 down a series of 8 samples. For each ligand, a no protein blank was also used. The proteins were incubated with the blocked plate for one hour, washed 3× with 1×TBST+0.5% BSA and tapped dry, then detected with a 1:10,000 dilution of an HRP conjugated anti-GST pAb. The plate was again washed 3× with 1×TBST and tapped dry. It was developed with a 1:1 solution of TMB substrate and development was stopped with 1M H2SO4 and read on a plate reader.
# [4] = molecular target: T3, WT PH Domain binding to PIP3 (Homo sapiens, UniProt P31749); assay: PIP3 agarose inhibition assay, WT; format: biochemical; details: triligand 0.1-1000 eq relative to protein (234 nM), in words
# T3 construct: 2 μg of either wildtype or mutant PH Domain-GFP protein (234 nM); made in house; host or cells: HEK-293-6E (used as cell lysate, not purified)
# T3 sequence (P31749 5-108 limits assumed): as the sequence (P31749 5-108 E17K limits assumed) above, with K13E counted along it
# From the text: as §1, §2
Compound,preference for E17K Akt1 relative to E17K Akt2 [1],inhibition of E17K PH Domain binding to PIP3-coated resin [2],"inhibition of E17K PH Domain binding to PIP3 resin, expanded assay [2]",change in binding affinity for the E17K protein versus the preceding ligand (ELISA) ([3]; in words),selectivity for E17K Akt1 relative to WT Akt1 (ELISA) ([3]; in words),"selectivity for E17K Akt1 relative to WT Akt1 (ELISA) ([3]; in words, listed as ivdae)","EC50 ([3]; ligand immobilized at 1 μM on streptavidin plate, Hill fit with common saturation and slope, read-out: EC50 for the E17K Akt1 from ELISA binding curves) [nM]","inhibition of WT PH Domain binding to PIP3 resin, expanded assay [4]"
"CC[C@@H](C)[C@@H](NC(=O)CCOCCOCCOCCOCCOCCOCCNC(=O)CCCC[C@@H]1SC[C@@H]2NC(=O)N[C@@H]21)C(=O)N[C@@H](C(=O)N[C@H](CC(=O)O)C(=O)N[C@H](C)C(=O)N[C@H](CCC(=O)O)C(=O)N[C@H](Cc1cn(CCCC[C@H](NC(C)=O)C(=O)N[C@H](Cc2ccc(O)cc2)C(=O)N[C@H](CC(C)C)C(=O)N[C@H](CCC(=O)O)C(=O)N[C@H](C)C(=O)N[C@H](Cc2ccccc2)C(=O)N[C@H](Cc2cn(CCCC[C@H](NC(C)=O)C(=O)N[C@H](Cc3ccc(O)cc3)C(=O)N[C@H](CCCCN)C(=O)N[C@H](CO)C(=O)N[C@H](Cc3ccc(O)cc3)C(N)=O)nn2)C(=O)O)nn1)C(=O)O)C(C)C [triligand] (I: Ac-[Lys(N3)][dY][dL][dE][dA][dF][dPra]-OH / II: {Biotin-PEG6}-[dI][dV][dD][dA][dE][dPra]-OH / III: Ac-[Lys(N3)][dY][dK][dS][dY]-NH2; triazole I:1-II:6, I:7-III:1; N-terminus assumed)",slight preference for E17K Akt1 relative to E17K Akt2,"exhibited the ability to block the PHD-PIP3 interaction, with the triligand being the most effective",significant selective inhibition of the E17K mutant relative to the WT,does not show an affinity increase for the E17K protein,largely recovered,maintains the selectivity over the WT protein,45,–
"triligand 8: form of the ivdae-yleaf-yksy triligand used in PIP3 inhibition assays (peptide 1 {Biotin-PEG5′}-[dI][dV][dD][dA][dE]; peptide 2 [dY][dL][dE][dA][dF]; peptide 3 [dY][dK][dS][dY]; not fully specified (N-terminus, C-terminus); also: triazole to a chain's N/C-terminus via Pra/Lys(N3), triazole to a chain's N/C-terminus via Pra/Lys(N3))",–,decreased binding of the protein,significant inhibition,–,–,–,–,little inhibition of this protein
